Reference: patent US20130252816A1, “HERBICIDAL COMPOSITION AND USE THEREOF” (Syngenta Crop Protection LLC, priority 2010, published 2013)

Key:
Assay in all cases: Example 1: adjuvants alone, visual % damage, pots in glasshouse
Type in all cases: in vivo
Taraxacum officinale = test system: Taraxacum officinale
Protocol: (§1) The effect of different adjuvants (see Table 1 below) on the growth of broadleaf weed and grass species was investigated and compared to untreated (water only) control weeds.
(§2) Plates, each with 48 pots measuring 2.7 cm diameter and 5 cm deep, were filled with TKS1 growing media (Floragard, Germany). Seeds of Taraxacum officinale, Stellaria media or Poa annua were sown on the surface (10 to 20 per pot). Plants were grown in glasshouse at a temperature of 18 to 20° C. and at 60% relative humidity.
(§3) Plants were treated 15 (Stellaria, Poa) and 34 (Taraxacum) days after sowing with 60 μl of a 1.25, 2.5, 5 and 10% (w/v) solution of adjuvant using a hand airbrush.
(§4) Visual assessment of the percentage damage to the plant was carried out 1 day and 6 days from application.
(§5) Damage was assessed as wilting, desiccation or any other kind of visual injury in comparison to the untreated control (water only).

Poa annua = test system: Poa annua
Protocol: as §1, §2, §3, §4, §5

Stellaria media = test system: Stellaria media
Protocol: as §1, §2, §3, §4, §5

Substance | avg % damage 1 DAA Taraxacum officinale (Taraxacum officinale; adjuvant 1.25% w/v) [%] | avg % damage 6 DAA Taraxacum officinale (Taraxacum officinale; adjuvant 1.25% w/v) [%] | avg % damage 1 DAA Taraxacum officinale (Taraxacum officinale; adjuvant 2.5% w/v) [%] | avg % damage 6 DAA Taraxacum officinale (Taraxacum officinale; adjuvant 2.5% w/v) [%] | avg % damage 1 DAA Taraxacum officinale (Taraxacum officinale; adjuvant 5% w/v) [%] | avg % damage 6 DAA Taraxacum officinale (Taraxacum officinale; adjuvant 5% w/v) [%] | avg % damage 1 DAA Taraxacum officinale (Taraxacum officinale; adjuvant 10% w/v) [%] | avg % damage 6 DAA Taraxacum officinale (Taraxacum officinale; adjuvant 10% w/v) [%] | avg % damage 1 DAA Poa annua (Poa annua; adjuvant 1.25% w/v) [%] | avg % damage 6 DAA Poa annua (Poa annua; adjuvant 1.25% w/v) [%] | avg % damage 1 DAA Poa annua (Poa annua; adjuvant 2.5% w/v) [%] | avg % damage 6 DAA Poa annua (Poa annua; adjuvant 2.5% w/v) [%] | avg % damage 1 DAA Poa annua (Poa annua; adjuvant 5% w/v) [%] | avg % damage 6 DAA Poa annua (Poa annua; adjuvant 5% w/v) [%] | avg % damage 1 DAA Poa annua (Poa annua; adjuvant 10% w/v) [%] | avg % damage 6 DAA Poa annua (Poa annua; adjuvant 10% w/v) [%] | avg % damage 1 DAA Stellaria media (Stellaria media; adjuvant 1.25% w/v) [%] | avg % damage 6 DAA Stellaria media (Stellaria media; adjuvant 1.25% w/v) [%] | avg % damage 1 DAA Stellaria media (Stellaria media; adjuvant 2.5% w/v) [%] | avg % damage 6 DAA Stellaria media (Stellaria media; adjuvant 2.5% w/v) [%] | other results
Oleyl alcohol polyglycol ether with 15 moles of ethoxylation [GenapolO150] | 0 | 3 | 0 | 0 | 5 | 3 | 5 | 3 | 0 | 0 | 0 | 0 | 0 | 0 | 0 | 0 | 0 | 5 | 0 | 20 | avg % damage 1 DAA Stellaria media (Stellaria media; adjuvant 5% w/v): 13%; avg % damage 6 DAA Stellaria media (Stellaria media; adjuvant 5% w/v): 30%; avg % damage 1 DAA Stellaria media (Stellaria media; adjuvant 10% w/v): 43%; avg % damage 6 DAA Stellaria media (Stellaria media; adjuvant 10% w/v): 60%
Tri-sec-butylphenol polyglycol ether with 6 Moles of ethoxylation [SAPOGENAT T 060] | 0 | 0 | 0 | 0 | 0 | 0 | 0 | 0 | 0 | 5 | 0 | 5 | 0 | 25 | 0 | 35 | 0 | 0 | 0 | 0 | avg % damage 1 DAA Stellaria media (Stellaria media; adjuvant 5% w/v): 0%; avg % damage 6 DAA Stellaria media (Stellaria media; adjuvant 5% w/v): 20%; avg % damage 1 DAA Stellaria media (Stellaria media; adjuvant 10% w/v): 0%; avg % damage 6 DAA Stellaria media (Stellaria media; adjuvant 10% w/v): 20%
Oleyl alcohol polyglycol ether with 20 moles of ethoxylation [GenapolO200] | 0 | 3 | 0 | 0 | 0 | 5 | 10 | 0 | 0 | 0 | 0 | 0 | 0 | 0 | 0 | 0 | 0 | 0 | 0 | 5 | avg % damage 1 DAA Stellaria media (Stellaria media; adjuvant 5% w/v): 0%; avg % damage 6 DAA Stellaria media (Stellaria media; adjuvant 5% w/v): 5%; avg % damage 1 DAA Stellaria media (Stellaria media; adjuvant 10% w/v): 15%; avg % damage 6 DAA Stellaria media (Stellaria media; adjuvant 10% w/v): 30%
Oleyl alcohol polyglycol ether with 10 moles of ethoxylation [GenapolO100] | 0 | 0 | 5 | 0 | 5 | 0 | 5 | 0 | 0 | 5 | 0 | 10 | 0 | 10 | 0 | 10 | 0 | 5 | 5 | 10 | avg % damage 1 DAA Stellaria media (Stellaria media; adjuvant 5% w/v): 15%; avg % damage 6 DAA Stellaria media (Stellaria media; adjuvant 5% w/v): 30%; avg % damage 1 DAA Stellaria media (Stellaria media; adjuvant 10% w/v): 50%; avg % damage 6 DAA Stellaria media (Stellaria media; adjuvant 10% w/v): 55%
